Test results as given in the supplement of paper PMC10307832.

How the values were obtained:
Assay in all cases: relative viability (nuclei count vs DMSO), 5 days (fraction); higher = more cells survive
Erlotinib + Dasatinib = compound: C#Cc1cccc(Nc2ncnc3cc(OCCOC)c(OCCOC)cc23)c1 [Erlotinib] + Cc1nc(Nc2ncc(C(=O)Nc3c(C)cccc3Cl)s2)cc(N2CCN(CCO)CC2)n1 [Dasatinib] (partner 0.075 µM)
Method in brief: (§1)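 Values are medians from duplicate plates. Each reflects relative viability, defined as the nuclei count of treated wells over that of vehicle wells. Lung cancer cell lines in 1536-well plates were pin-tool dosed one day after seeding with one drug alone or with a fixed anchor-drug dose plus five library-drug doses (not always all listed) in √10 steps, then fixed, stained and imaged at 4× after 5 days.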

AT9283 + Phenformin = compound: O=C(Nc1c[nH]nc1-c1nc2ccc(CN3CCOCC3)cc2[nH]1)NC1CC1 [AT9283] + N=C(N)NC(=N)NCCc1ccccc1 [Phenformin] (partner 250 µM)
Method in brief: as §1

Erlotinib + Palbociclib = compound: C#Cc1cccc(Nc2ncnc3cc(OCCOC)c(OCCOC)cc23)c1 [Erlotinib] + CC(=O)c1c(C)c2cnc(Nc3ccc(N4CCNCC4)cn3)nc2n(C2CCCC2)c1=O [Palbociclib] (partner 0.5 µM)
Method in brief: as §1

Erlotinib + Tozasertib = compound: C#Cc1cccc(Nc2ncnc3cc(OCCOC)c(OCCOC)cc23)c1 [Erlotinib] + Cc1cc(Nc2cc(N3CCN(C)CC3)nc(Sc3ccc(NC(=O)C4CC4)cc3)n2)n[nH]1 [Tozasertib] (partner 0.1 µM)
Method in brief: as §1

AT9283 + Luminespib = compound: O=C(Nc1c[nH]nc1-c1nc2ccc(CN3CCOCC3)cc2[nH]1)NC1CC1 [AT9283] + CCNC(=O)c1noc(-c2cc(C(C)C)c(O)cc2O)c1-c1ccc(CN2CCOCC2)cc1 [Luminespib] (partner 0.01 µM)
Method in brief: as §1

NCI-H441
relative viability (Erlotinib + Dasatinib; first compound 0.02 µM): 0.651 | relative viability (Erlotinib + Dasatinib; first compound 0.2 µM): 0.554 | relative viability (Erlotinib + Dasatinib; first compound 0.6325 µM): 0.508 | relative viability (Erlotinib + Dasatinib; first compound 2 µM): 0.61 | relative viability (AT9283 + Phenformin; first compound 0.003 µM): 0.858 | relative viability (AT9283 + Phenformin; first compound 0.03 µM): 0.853 | relative viability (AT9283 + Phenformin; first compound 0.09487 µM): 0.286 | relative viability (AT9283 + Phenformin; first compound 0.3 µM): 0.244 | relative viability (Erlotinib + Palbociclib; first compound 0.02 µM): 0.196 | relative viability (Erlotinib + Palbociclib; first compound 0.2 µM): 0.212 | relative viability (Erlotinib + Palbociclib; first compound 0.6325 µM): 0.177 | relative viability (Erlotinib + Palbociclib; first compound 2 µM): 0.186 | relative viability (Erlotinib + Tozasertib; first compound 0.02 µM): 0.631 | relative viability (Erlotinib + Tozasertib; first compound 0.2 µM): 0.717 | relative viability (Erlotinib + Tozasertib; first compound 0.6325 µM): 0.574 | relative viability (Erlotinib + Tozasertib; first compound 2 µM): 0.473 | relative viability (AT9283 + Luminespib; first compound 0.003 µM): 0.432 | relative viability (AT9283 + Luminespib; first compound 0.03 µM): 0.347 | relative viability (AT9283 + Luminespib; first compound 0.09487 µM): 0.344 | relative viability (AT9283 + Luminespib; first compound 0.3 µM): 0.263
